# Data from patent US9944602B2, “Piperidinone herbicides” (E. I. DU PONT DE NEMOURS AND COMPANY, priority 2014, dated 2018).
# Assays:
# Type in all cases: in vivo
# [1] = tested on: barnyardgrass (Echinochloa crus-galli); experiment: Test A preemergence barnyardgrass; settings: Echinochloa crus-galli, pre-emergence, 240 h, 0 to 100 scale, 0 no effect, 100 complete control, read-out: Barnyardgrass plant response rating; for pest or weed control at 125 g/ha: 125 g ai/ha; for pest or weed control at 500 g/ha: 500 g ai/ha
# Procedure, shortened: (§1)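 Scores reflect visual comparison with untreated controls after ~10 d in the greenhouse (0 none, 100 complete control). Treatment was a surfactant-containing non-phytotoxic solvent formulation, sprayed onto soil after seeding or onto seedlings at one to two leaves, 2–10 cm tall.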
# kochia (Kochia scoparia) [2] = experiment: Test A preemergence kochia; settings: Bassia scoparia, pre-emergence, 240 h, 0 to 100 scale, 0 no effect, 100 complete control, read-out: Kochia plant response rating; for pest or weed control at 125 g/ha: 125 g ai/ha; for pest or weed control at 500 g/ha: 500 g ai/ha
# Procedure, shortened: as §1
# [3] = tested on: ragweed (common ragweed, Ambrosia elatior); experiment: Test A preemergence ragweed; settings: Ambrosia artemisiifolia, pre-emergence, 240 h, 0 to 100 scale, 0 no effect, 100 complete control, read-out: Ragweed plant response rating; for pest or weed control at 125 g/ha: 125 g ai/ha; for pest or weed control at 500 g/ha: 500 g ai/ha
# Procedure, shortened: as §1
# [4] = tested on: ryegrass, Italian (Italian ryegrass, Lolium multiflorum); experiment: Test A preemergence ryegrass, Italian; settings: Lolium multiflorum, pre-emergence, 240 h, 0 to 100 scale, 0 no effect, 100 complete control, read-out: Ryegrass, Italian plant response rating; for pest or weed control at 125 g/ha: 125 g ai/ha; for pest or weed control at 500 g/ha: 500 g ai/ha
# Procedure, shortened: as §1
# [5] = tested on: foxtail, giant (giant foxtail, Setaria faberii); experiment: Test A preemergence foxtail, giant; settings: Setaria faberi, pre-emergence, 240 h, 0 to 100 scale, 0 no effect, 100 complete control, read-out: Foxtail, Giant plant response rating; for pest or weed control at 125 g/ha: 125 g ai/ha; for pest or weed control at 500 g/ha: 500 g ai/ha
# Procedure, shortened: as §1
# [6] = tested on: pigweed (Amaranthus retroflexus); experiment: Test A preemergence pigweed; settings: Amaranthus retroflexus, pre-emergence, 240 h, 0 to 100 scale, 0 no effect, 100 complete control, read-out: Pigweed plant response rating; for pest or weed control at 125 g/ha: 125 g ai/ha; for pest or weed control at 500 g/ha: 500 g ai/ha
# Procedure, shortened: as §1
# [7] = tested on: barnyardgrass (Echinochloa crus-galli); experiment: Test A postemergence barnyardgrass; settings: Echinochloa crus-galli, post-emergence, 240 h, 0 to 100 scale, 0 is no effect, 100 is complete control, read-out: Plant response rating, Barnyardgrass; for pest or weed control at 125 g/ha: 125 g ai/ha; for pest or weed control at 500 g/ha: 500 g ai/ha
# Procedure, shortened: as §1
# kochia (Kochia scoparia) [8] = experiment: Test A postemergence kochia; settings: Bassia scoparia, post-emergence, 240 h, 0 to 100 scale, 0 is no effect, 100 is complete control, read-out: Plant response rating, Kochia; for pest or weed control at 125 g/ha: 125 g ai/ha; for pest or weed control at 500 g/ha: 500 g ai/ha
# Procedure, shortened: as §1
# [9] = tested on: ragweed (common ragweed, Ambrosia elatior); experiment: Test A postemergence ragweed; settings: Ambrosia artemisiifolia, post-emergence, 240 h, 0 to 100 scale, 0 is no effect, 100 is complete control, read-out: Plant response rating, Ragweed; for pest or weed control at 125 g/ha: 125 g ai/ha; for pest or weed control at 500 g/ha: 500 g ai/ha
# Procedure, shortened: as §1
# [10] = tested on: ryegrass, Italian (Italian ryegrass, Lolium multiflorum); experiment: Test A postemergence ryegrass, Italian; settings: Lolium multiflorum, post-emergence, 240 h, 0 to 100 scale, 0 is no effect, 100 is complete control, read-out: Plant response rating, Ryegrass, Italian; for pest or weed control at 125 g/ha: 125 g ai/ha; for pest or weed control at 500 g/ha: 500 g ai/ha
# Procedure, shortened: as §1
# [11] = tested on: foxtail, giant (giant foxtail, Setaria faberii); experiment: Test A postemergence foxtail, giant; settings: Setaria faberi, post-emergence, 240 h, 0 to 100 scale, 0 is no effect, 100 is complete control, read-out: Plant response rating, Foxtail, Giant; for pest or weed control at 125 g/ha: 125 g ai/ha; for pest or weed control at 500 g/ha: 500 g ai/ha
# Procedure, shortened: as §1
# [12] = tested on: pigweed (Amaranthus retroflexus); experiment: Test A postemergence pigweed; settings: Amaranthus retroflexus, post-emergence, 240 h, 0 to 100 scale, 0 is no effect, 100 is complete control, read-out: Plant response rating, Pigweed; for pest or weed control at 125 g/ha: 125 g ai/ha; for pest or weed control at 500 g/ha: 500 g ai/ha
# Procedure, shortened: as §1
# [13] = tested on: wheat (Triticum aestivum); experiment: Test A postemergence wheat; settings: Triticum aestivum, post-emergence, 240 h, 0 to 100 scale, 0 is no effect, 100 is complete control, read-out: Plant response rating, Wheat; for plant injury at 125 g/ha: 125 g ai/ha; for plant injury at 500 g/ha: 500 g ai/ha
# Procedure, shortened: as §1
# corn (Zea mays) = experiment: Test A postemergence corn; settings: Zea mays, post-emergence, 240 h, 0 to 100 scale, 0 is no effect, 100 is complete control; for Corn plant response rating (crop injury, 0 = no effect, 100 = complete kill) at 125 g/ha: 125 g ai/ha; for Corn plant response rating (crop injury, 0 = no effect, 100 = complete kill) at 500 g/ha: 500 g ai/ha
# Procedure, shortened: as §1
# [14] = tested on: blackgrass (Alopecurus myosuroides); experiment: Test A postemergence blackgrass; settings: Alopecurus myosuroides, post-emergence, 240 h, 0 to 100 scale, 0 is no effect, 100 is complete control, read-out: Plant response rating, Blackgrass; for pest or weed control at 125 g/ha: 125 g ai/ha; for pest or weed control at 500 g/ha: 500 g ai/ha
# Procedure, shortened: as §1
# [15] = tested on: galium (catchweed bedstraw, Galium aparine); experiment: Test A postemergence galium; settings: Galium, post-emergence, 240 h, 0 to 100 scale, 0 is no effect, 100 is complete control, read-out: Plant response rating, Galium; for pest or weed control at 125 g/ha: 125 g ai/ha; for pest or weed control at 500 g/ha: 500 g ai/ha
# Procedure, shortened: as §1
# rice (Oryza sativa) = experiment: Test B flooded paddy test rice; settings: Oryza sativa, Table B, Flood, 250 g ai/ha, scale 0 to 100, read-out: Plant response rating
# Procedure, shortened: (§2)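 Visual injury relative to controls was scored after 13 to 15 d in the greenhouse. Treatment was by adding compound straight to flood water 3 cm deep, maintained for the whole test, on plants at the 2-leaf stage.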
# [16] = tested on: sedge, umbrella (small-flower umbrella sedge, Cyperus difformis); experiment: Test B flooded paddy test sedge, umbrella; settings: Cyperus difformis, Table B, Flood, 250 g ai/ha, scale 0 to 100, read-out: Plant response rating
# Procedure, shortened: as §2
# [17] = tested on: ducksalad (Heteranthera limosa); experiment: Test B flooded paddy test ducksalad; settings: Heteranthera limosa, Table B, Flood, 250 g ai/ha, scale 0 to 100, read-out: Plant response rating
# Procedure, shortened: as §2
# [18] = tested on: barnyardgrass (Echinochloa crus-galli); experiment: Test B flooded paddy test barnyardgrass; settings: Echinochloa crus-galli, Table B, Flood, 250 g ai/ha, scale 0 to 100, read-out: Plant response rating
# Procedure, shortened: as §2
SMILES,pest or weed control at 125 g/ha [1] [%],pest or weed control at 500 g/ha [1] [%],pest or weed control at 125 g/ha (kochia (Kochia scoparia) [2]) [%],pest or weed control at 500 g/ha (kochia (Kochia scoparia) [2]) [%],pest or weed control at 125 g/ha [3] [%],pest or weed control at 500 g/ha [3] [%],pest or weed control at 125 g/ha [4] [%],pest or weed control at 500 g/ha [4] [%],pest or weed control at 125 g/ha [5] [%],pest or weed control at 500 g/ha [5] [%],pest or weed control at 125 g/ha [6] [%],pest or weed control at 500 g/ha [6] [%],pest or weed control at 125 g/ha [7] [%],pest or weed control at 500 g/ha [7] [%],pest or weed control at 125 g/ha (kochia (Kochia scoparia) [8]) [%],pest or weed control at 500 g/ha (kochia (Kochia scoparia) [8]) [%],pest or weed control at 125 g/ha [9] [%],pest or weed control at 500 g/ha [9] [%],pest or weed control at 125 g/ha [10] [%],pest or weed control at 500 g/ha [10] [%],also measured
"O=C1NCC[C@H](c2cccc(Cl)c2)[C@H]1C(=O)Nc1cccc(F)c1F [Compound 42, (3R,4S)-4-(3-chlorophenyl)-N-(2,3-difluorophenyl)-2-oxo-3-piperidinecarboxamide]",90,90,0,0,0,0,40,60,90,90,0,10,80,90,0,30,0,0,40,50,"pest or weed control at 125 g/ha [11]: 90%; pest or weed control at 500 g/ha [11]: 90%; pest or weed control at 125 g/ha [12]: 0%; pest or weed control at 500 g/ha [12]: 0%; plant injury at 125 g/ha [13]: 0%; plant injury at 500 g/ha [13]: 60%; Corn plant response rating (crop injury, 0 = no effect, 100 = complete kill) at 125 g/ha (corn (Zea mays)): 10%; Corn plant response rating (crop injury, 0 = no effect, 100 = complete kill) at 500 g/ha (corn (Zea mays)): 60%; pest or weed control at 125 g/ha [14]: 40%; pest or weed control at 500 g/ha [14]: 70%; pest or weed control at 125 g/ha [15]: 0%; pest or weed control at 500 g/ha [15]: 10%; plant injury at 250 g/ha (rice (Oryza sativa)): 0%; pest or weed control at 250 g/ha [16]: 0%; pest or weed control at 250 g/ha [17]: 95%; pest or weed control at 250 g/ha [18]: 75%"
"CN1CC[C@H](c2ccc(F)cc2)[C@@H](C(=O)Nc2cccc(F)c2F)C1=O [Compound 52, (3S,4S)—N-(2,3-difluorophenyl)-4-(4-fluorophenyl)-1-methyl-2-oxo-3-piperidinecarboxamide]",90,90,0,20,20,30,20,30,90,90,30,80,70,90,0,20,0,0,0,20,"pest or weed control at 125 g/ha [11]: 80%; pest or weed control at 500 g/ha [11]: 80%; pest or weed control at 125 g/ha [12]: 0%; pest or weed control at 500 g/ha [12]: 0%; plant injury at 125 g/ha [13]: 0%; plant injury at 500 g/ha [13]: 20%; Corn plant response rating (crop injury, 0 = no effect, 100 = complete kill) at 125 g/ha (corn (Zea mays)): 0%; Corn plant response rating (crop injury, 0 = no effect, 100 = complete kill) at 500 g/ha (corn (Zea mays)): 10%; pest or weed control at 125 g/ha [14]: 0%; pest or weed control at 500 g/ha [14]: 0%; pest or weed control at 125 g/ha [15]: 0%; pest or weed control at 500 g/ha [15]: 50%; plant injury at 250 g/ha (rice (Oryza sativa)): 0%; pest or weed control at 250 g/ha [16]: 0%; pest or weed control at 250 g/ha [17]: 100%; pest or weed control at 250 g/ha [18]: 30%"
